Measurements reported in ChEMBL document CHEMBL3885861, “Open TG-GATES”.

Species on record: Rattus norvegicus
Test: Open TG-GATES - Regimen: Single
Type: toxicity, organism-based, Sprague-Dawley
Set-up: regimen Single, gender Male, age 6 weeks
Details: in vivo, po, route gavage; for Bas / Eos / Ht / Lym / MCH / Mono / Neu / RBC / Ret: tissue Blood; for KIDNEY_L / KIDNEY_R / KIDNEY_TOTAL: tissue Kidney; for ALP / ALT / AST / CRE / DBIL / IP / K / LDH / Na / PL / RALB / TBIL / TC / TG / TP / gamma-GTP / Ca: tissue Plasma; for LIVER: tissue Liver
[1] = 0 mg/kg, 3 h, dose level Control
[2] = 0 mg/kg, 6 h, dose level Control
[3] = 0 mg/kg, 9 h, dose level Control
[4] = 0 mg/kg, 24 h, dose level Control
[5] = 200 mg/kg, 24 h, dose level Low

## COc1cc2ncnc(Nc3ccc(F)c(Cl)c3)c2cc1OCCCN1CCOCC1 [GEFITINIB]
[1]
  TERMINAL_BW: 216 g
  Bas: 0%
  Eos: 0.8%
  Ht: 39.6%
  Lym: 74.2%
  MCH: 21.5 pg
  Mono: 2.6%
  Neu: 21.8%
  RBC: 610.2 x10_4/ul
  Ret: 9.3%
  KIDNEY_L: 0.9 g
  KIDNEY_R: 0.9 g
  KIDNEY_TOTAL: 1.8 g
  ALP: 1581.8 IU/L
  ALT: 42.2 IU/L
  AST: 73.2 IU/L
  CRE: 0.2 mg/dL
  DBIL: 0 mg/dL
  IP: 8.2 mg/dL
  K: 4.1 meq/L
  LDH: 183.2 IU/L
  Na: 143.1 meq/L
  PL: 148.6 mg/dL
  RALB: 3.9 g/dL
  TBIL: 0.02 mg/dL
  TC: 85.4 mg/dL
  TG: 64.2 mg/dL
  TP: 5.5 g/dL
  gamma-GTP: 1.1 IU/L
[2]
  TERMINAL_BW: 212.6 g
  Bas: 0%
  Eos: 0.8%
  Ht: 40.1%
  Lym: 83.6%
  MCH: 21.4 pg
  Mono: 2.4%
  Neu: 12.8%
  RBC: 623.6 x10_4/ul
  Ret: 9.7%
  KIDNEY_L: 0.9 g
  KIDNEY_R: 1 g
  KIDNEY_TOTAL: 1.9 g
  LIVER: 9.6 g
  ALP: 1643.4 IU/L
  ALT: 41.2 IU/L
  AST: 71 IU/L
  CRE: 0.1 mg/dL
  Ca: 10.6 mg/dL
  DBIL: 0.002 mg/dL
  IP: 9.6 mg/dL
  K: 4.2 meq/L
  LDH: 200.6 IU/L
  Na: 142.5 meq/L
  PL: 158.8 mg/dL
  RALB: 3.9 g/dL
  TBIL: 0.018 mg/dL
  TC: 90.8 mg/dL
  TG: 78.2 mg/dL
  TP: 5.4 g/dL
  gamma-GTP: 1 IU/L
[3]
  TERMINAL_BW: 210 g
  Bas: 0%
  Eos: 1%
  Ht: 38.5%
  Lym: 77.6%
  MCH: 21.3 pg
  Mono: 3.4%
  Neu: 17.6%
  RBC: 601.2 x10_4/ul
  Ret: 9.4%
  KIDNEY_L: 1 g
  KIDNEY_R: 0.9 g
  KIDNEY_TOTAL: 1.9 g
  LIVER: 9 g
  ALP: 1562.4 IU/L
  ALT: 35.2 IU/L
  AST: 67.2 IU/L
  CRE: 0.1 mg/dL
  DBIL: 0.004 mg/dL
  IP: 10 mg/dL
  K: 4.2 meq/L
  LDH: 169 IU/L
  Na: 143.4 meq/L
  PL: 139.6 mg/dL
  RALB: 3.9 g/dL
  TBIL: 0.022 mg/dL
  TC: 81.6 mg/dL
  TG: 67.3 mg/dL
  TP: 5.4 g/dL
  gamma-GTP: 1 IU/L
[4]
  TERMINAL_BW: 223.4 g
  Bas: 0%
  Eos: 1%
  Ht: 39.9%
  Lym: 78.5%
  MCH: 20.8 pg
  Mono: 3.5%
  Neu: 16%
  RBC: 619.8 x10_4/ul
  Ret: 8.2%
  KIDNEY_L: 1 g
  KIDNEY_R: 1 g
  KIDNEY_TOTAL: 1.9 g
  LIVER: 10.6 g
  ALT: 44.5 IU/L
  AST: 75.8 IU/L
  CRE: 0.2 mg/dL
  Ca: 10.8 mg/dL
  DBIL: 0 mg/dL
  IP: 7.4 mg/dL
  K: 4.4 meq/L
  LDH: 145.5 IU/L
  Na: 142.1 meq/L
  PL: 149.5 mg/dL
  RALB: 4.2 g/dL
  TBIL: 0.01 mg/dL
  TC: 79 mg/dL
  TG: 122.7 mg/dL
  TP: 5.7 g/dL
  gamma-GTP: 1.3 IU/L
200 mg/kg, 3 h, dose level Low
  TERMINAL_BW: 214.5 g
  Bas: 0%
  Eos: 0.8%
  Ht: 36.1%
  Lym: 74.4%
  MCH: 20.9 pg
  Mono: 3%
  Neu: 21.4%
  RBC: 577.2 x10_4/ul
  Ret: 8.9%
  KIDNEY_L: 1 g
  KIDNEY_R: 1 g
  KIDNEY_TOTAL: 2 g
  LIVER: 9.2 g
  ALP: 1618.4 IU/L
  ALT: 52 IU/L
  AST: 82.8 IU/L
  CRE: 0.1 mg/dL
  Ca: 9.9 mg/dL
  DBIL: 0.016 mg/dL
  IP: 9.2 mg/dL
  K: 4.1 meq/L
  LDH: 220.4 IU/L
  Na: 141.6 meq/L
  PL: 147.4 mg/dL
  RALB: 3.8 g/dL
  TBIL: 0.066 mg/dL
  TC: 97 mg/dL
  TG: 39.9 mg/dL
  TP: 5.3 g/dL
  gamma-GTP: 0.9 IU/L
200 mg/kg, 6 h, dose level Low
  TERMINAL_BW: 210.7 g
  Bas: 0%
  Eos: 0.6%
  Ht: 37.3%
  Lym: 79.4%
  MCH: 21.5 pg
  Mono: 3.6%
  Neu: 15.8%
  RBC: 579.2 x10_4/ul
  Ret: 9.1%
  KIDNEY_L: 0.9 g
  KIDNEY_R: 0.9 g
  KIDNEY_TOTAL: 1.9 g
  LIVER: 8.9 g
  ALP: 1407.4 IU/L
  ALT: 53.8 IU/L
  AST: 78.6 IU/L
  CRE: 0.2 mg/dL
  Ca: 9.9 mg/dL
  DBIL: 0.018 mg/dL
  IP: 9.6 mg/dL
  K: 4 meq/L
  LDH: 142.6 IU/L
  Na: 141.5 meq/L
  PL: 142.8 mg/dL
  RALB: 3.9 g/dL
  TBIL: 0.076 mg/dL
  TC: 93 mg/dL
  TG: 31.4 mg/dL
  TP: 5.4 g/dL
  gamma-GTP: 0.9 IU/L
200 mg/kg, 9 h, dose level Low
  TERMINAL_BW: 210 g
  Bas: 0%
  Eos: 0.6%
  Ht: 38.5%
  Lym: 78.4%
  MCH: 20.9 pg
  Mono: 3.2%
  Neu: 17.2%
  RBC: 611 x10_4/ul
  Ret: 8.8%
  KIDNEY_L: 0.9 g
  KIDNEY_R: 0.9 g
  KIDNEY_TOTAL: 1.8 g
  LIVER: 8.6 g
  ALP: 1488 IU/L
  ALT: 48.2 IU/L
  AST: 78.4 IU/L
  CRE: 0.2 mg/dL
  Ca: 9.9 mg/dL
  DBIL: 0.01 mg/dL
  IP: 9.5 mg/dL
  K: 4.3 meq/L
  Na: 143.6 meq/L
  PL: 146 mg/dL
  RALB: 3.8 g/dL
  TBIL: 0.048 mg/dL
  TC: 93.6 mg/dL
  TG: 39 mg/dL
  TP: 5.4 g/dL
  gamma-GTP: 1.1 IU/L
[5]
  TERMINAL_BW: 215.5 g
  Bas: 0%
  Eos: 0.8%
  Ht: 40.7%
  Lym: 66%
  MCH: 20.6 pg
  Mono: 4%
  Neu: 28.6%
  RBC: 635 x10_4/ul
  Ret: 8.2%
  KIDNEY_L: 1 g
  KIDNEY_R: 1 g
  KIDNEY_TOTAL: 2 g
  LIVER: 9.5 g
  ALP: 1548.6 IU/L
  ALT: 39.6 IU/L
  AST: 72.8 IU/L
  CRE: 0.2 mg/dL
  Ca: 10.7 mg/dL
  DBIL: 0.004 mg/dL
  IP: 8.6 mg/dL
  K: 4.4 meq/L
  LDH: 215.2 IU/L
  Na: 142.9 meq/L
  PL: 166 mg/dL
  RALB: 4 g/dL
  TBIL: 0.022 mg/dL
  TG: 69.4 mg/dL
  TP: 5.5 g/dL
  gamma-GTP: 1.2 IU/L
600 mg/kg, 3 h, dose level Middle
  TERMINAL_BW: 215 g
